# Source: patent US8623324B2, “Luminescent dyes with a water-soluble intramolecular bridge and their biological conjugates” (AAT Bioquest Inc., priority 2010, dated 2014)
# System: goat anti-rabbit IgG (GAR)
# Assay: Protein precipitation / water solubility of dye-protein conjugates at high dye/protein ratio
# Type: physicochemical
# Excerpt: FIG. 1. […] Their PBS solutions are adjusted to have the same absorption of OD=0.05 at 600 nm. The PBS solutions are excited at 600 nm, and the emissions are scanned from 620 to 800 nm.
# FIG. 2. […] Their PBS solutions are adjusted to have the same absorption of OD=0.05 at 600 nm. The PBS solutions are excited at 600 nm, and the emissions are scanned from 620 to 800 nm.
# FIG. 3. […] Their PBS solutions are adjusted to have the same absorption of OD=0.1 at 450 nm. The PBS solutions are excited at 460 nm, and the emissions are scanned from 470 to 650 nm.
# The typical method for protein conjugation with succinimidyl esters of the invention is as follows. Variations in ratios of dye to protein, protein concentration, time, temperature, buffer composition and other variables that are well known in the art are possible that still yield useful conjugates. A solution of the protein is prepared at about 10 mg/mL in 0.1M sodium bicarbonate. The labeling reagents are dissolved in a suitable solvent such as DMF or DMSO at about 10 mg/mL. Water is a suitable solvent for many dyes of the invention. Predetermined amounts of the labeling reagents are added to the protein solutions with stiffing. A molar ratio of 10 equivalents of dye to 1 equivalent of protein is typical, though the optimal amount varies with the particular labeling reagent, the protein being labeled and the protein's concentration, and is determined empirically.
# [1] = ratio of dye/protein larger than 8
# [2] = ratio of dye/protein larger than 10
structure (smiles),measurement,setting,value
CC12CCCCCC(=O)NCCCCCNC(=O)C(CS(=O)(=O)O)NC(=O)C(CS(=O)(=O)O)NC(=O)C(CS(=O)(=O)O)NC(=O)CCCCCC3(C)/C(=C/C=C/C=C/C1=[N+](CCCCCC(=O)ON1C(=O)CCC1=O)c1ccc(S(=O)(=O)O)cc12)N(CCCCCC(=O)ON1C(=O)CCC1=O)c1ccc(S(=O)(=O)O)cc13 (stereo not shown) [Compound 39],protein precipitation / water solubility of dye-protein conjugate,[1],still water soluble
CC1(C)C2=[N+](CCCCCC(=O)NC(C(=O)NCCCCCC(=O)ON3C(=O)CCC3=O)CCCCNC(=O)CCCCCC3(C)/C(=C/C=C/C=C/2)N(CCCS(=O)(=O)O)c2ccc(S(=O)(=O)O)cc23)c2ccc(S(=O)(=O)[O-])cc21 (stereo not shown) [Compound 133],protein precipitation / water solubility of dye-protein conjugate,[2],causes protein to precipitate
CC12CCCCCC(=O)NCCCCCCCCCCCCNC(=O)CCCCCC3(C)/C(=C/C=C/C=C/C1=[N+](CCCCCC(=O)ON1C(=O)CCC1=O)c1ccc(S(=O)(=O)O)cc12)N(CCCCCC(=O)ON1C(=O)CCC1=O)c1ccc(S(=O)(=O)O)cc13 (stereo not shown) [Compound 136],protein precipitation / water solubility of dye-protein conjugate,[1],causes protein to precipitate
CC1(C)C2=[N+](CCCCCC(=O)NC(Cc3ccc(S(=O)(=O)O)s3)C(=O)NCCCCC(C(=O)NCCCCCC(=O)ON3C(=O)CCC3=O)NC(=O)C(Cc3ccc(S(=O)(=O)[O-])s3)NC(=O)CCCCCC3(C)/C(=C/C=C/C=C/2)N(CCCS(=O)(=O)O)c2ccc(S(=O)(=O)O)cc23)c2ccc(S(=O)(=O)O)cc21 (stereo not shown) [Compound 134],protein precipitation / water solubility of dye-protein conjugate,[2],still water soluble
